The values below come from patent publication US20050236004A1, “Healthcare model of wellness” (priority 2004, published 2005).

For data set [1] the following is noted: in vivo.
The conditions of data set [2]: cited from earlier work.
Data set [3] can be described thus: first principles model of blood serum level of a drug over time.
Excerpt: The relevant internal variables for the modal of FIG. 18 are: • Ingested amount=I • Blood amount=B
The relevant parameters for the model are: • Digestion rate=κ • Absorption rates=α,β • Conversion rate=γ • Excretion rate=ω
The model equations are then: dI/dt=−αI−κ dB/dt−−ωB−γ+αl+κ−βD dD/dt=κ−βD In most cases, these parameters are not available directly, but most infer them from values such as the excretion half-life T1/2 and the time of maximum blood levels, Tmax. For most medications, the digestion and conversion rates are small or zero, and, as such, it is only necessary to estimate the absorption and excretion rates α and ω. […] The system of equations is then given by: dI/dt=αl dB/dt=−ωB+αl which can be solved exactly for the case of a single ingested amount I0 by converting to matrix form: dV/dt=MV where V the column vector [I,B] and M is the coefficient matrix [−α,0][α,−ω]. This matrix equation has the solution: V=exp(Mt)V0 Where exp(Mt) is the exponentiation of M as a matrix taylor series, and V0 is the initial vector. Inserting M=PDP^−1 where D is a diagonal matrix in the taylor series gives: exp(Mt)=Pexp(Dt)P^−1 The eigenvalues are easily given by setting det(D−λI)=0 giving (−α−λ)(−ω−λ)=0, and so λ=−α,−ω D=[−α,0][0,−ω] Solving for the eigenvectors of comprising P gives the following relationship: P=[ω−α)/α,0][1,1] […]

Regarding `Cc1onc(-c2ccccc2)c1-c1ccc(S(N)(=O)=O)cc1` [BEXTRA, Valdecoxib], in data set [1], the Cmax/AUC amounted to 0.1089. Further, the Cmin in data set [2] (at 14 day equilibrium) is 21.9 ng/mL. In data set [2] (given value, 24 hr), the “Area_Under_Curve(24 hr)” value was 1479.0 ng·h/mL. Further, in data set [2] (given value), the peak concentration (Cmax) is listed as 161.1 ng/mL, the “Elimination Half-Life” value is 8.11 h and the time of peak concentration (Tmax) was 2.25 h. Besides, in data set [3] (computed from Tmax by iterative formula), the “absorption coefficient α” value was determined as 1.293 h⁻¹. The “excretion coefficient ω” value in data set [3] (ln(2)/half-life) worked out at 0.08547 h⁻¹.
